Data as given in patent US11840518B2, “Use of bromophenol-pyrazoline compounds for the treatment of feline coronavirus diseases” (Shandong Linghai Biotechnology Co., Ltd., priority 2021, dated 2023).

Assays:
[1] = system: FIPV wild strain in CRFK cells; assay: Interference with FIPV replication in infected CRFK cells (qRT-PCR of vRNA in supernatant); assay type: cell-based, feline infectious peritonitis virus; conditions: 5 μM, CRFK cells infected with wild-type FIPV, 24 hours; FIG. 2
Description: To further confirm in vitro enzymatic inhibition results, the inventors evaluated whether the bromophenol-pyrazoline compounds could prevent FIPV replication in clinical wild-type FIPV-infected Crandell-Rees feline kidney (CRFK) cells.
The CRFK cells were cultured with DMEM containing 8% fetal bovine serum in a cell incubator with 5% CO2 at 37° C. When the cells grew to a density of about 80%, the cells were pretreated with 5 μM bromophenol-pyrazoline compounds to be tested for 1 hour, and then an FIPV wild strain (MOI=0.1) was inoculated into the CRFK cells. The CRFK cells inoculated with virus but without the compounds were set up as controls. After 24 hours, a cell supernatant was collected, and vRNA in the supernatant was subject to qRT-PCR analysis.

[2] = system: FIPV; assay: Clinical trial in cats infected with the FIPV (feline infectious peritonitis); assay type: in vivo; conditions: for Moderate response: 4-week treatment
Excerpt: Serology or morphology cannot distinguish feline enteric coronavirus from the FIPV. According to the history, epidemiology, clinical symptoms, laboratory diagnosis, imaging examination and histopathological examination, the cats were diagnosed comprehensively after other diseases were ruled out.
Thirty cats infected with the FIPV were divided into a wet FIP group (n=17) and a dry FIP group (n=13) according to presence of significant pleural effusion, ascites, dyspnea and other symptoms (fibrous pleurisy and peritonitis). The wet FIP group (17 cats) was randomly divided into a control group (3 cats), a GS-441524 group (6 cats) and a compound 5 group (8 cats). The dry FIP group (13 cats) was randomly divided into a control group (2 cats), a GS-441524 group (5 cats) and a compound 5 group (6 cats).
For the wet and dry GS-441524 groups: 4.0 mg/kg was administered subcutaneously every 24 hours; and for the wet and dry compound 5 groups: 3 mg/kg was orally administered after dissolved in glucose solution once a day.
Rectal temperature was measured at least once a day, and body weight, respiration, appetite and activity were observed. Special people were arranged to feed the cats, and foodware was washed and disinfected every day. The cats with good appetite were fed with conventional cat food, and high protein pet food can was used as nutritional supplement. The cats with poor appetite were subject to nasal feeding and intravenous injection for nutritional supplement to ensure nutrition intake of the experimental cats. At the same time, defecation and urination were also observed in terms of volume and shape. The cats were examined for blood routine indexes, serum biochemical indicators and abdominal B ultrasound condition according to actual situation.
Cases with good appetite, body weight, respiration, body temperature and other body conditions at the completion of 4-week treatment, and examined for the blood routine indexes and serum biochemical indicators twice (more than 1 week apart) were defined as effective.

[3] = system: FIP; conditions: 4 weeks of continuous treatment at 4 mg/kg; cited from earlier work
[4] = dry FIP group, number of cats (GS-441524 group n=5, 4.0 mg/kg s.c.; compound 5 group n=6, 3 mg/kg oral)
[5] = dry FIP group, number of cats (GS-441524 group n=5; compound 5 group n=6)
[6] = wet FIP group, number of cats (GS-441524 group n=6, 4.0 mg/kg s.c.; compound 5 group n=8, 3 mg/kg oral)
[7] = wet FIP group, number of cats (GS-441524 group n=6; compound 5 group n=8)

SMILES	ability to interfere with the FIPV virus replication [1]	time within which ocular lesions in some cats began to resolve significantly ([2]; Compound 5 treatment group)	treatment time after which normal cat food was given ([2]; Compound 5 treatment group)	treatment time after which the body temperature returned to normal and the body weight increased ([2]; Compound 5 treatment group)	comparison with the positive drug GS-441524 group ([2]; compound 5 3 mg/kg oral once a day vs GS-441524 4.0 mg/kg s.c. every 24 hours)	Clinical manifestations: time within which ocular lesions in some cats began to resolve significantly ([2]; dry FIP group)	Clinical manifestations: treatment time after which normal/ordinary cat food was given ([2]; dry FIP group)	Clinical manifestations: treatment time after which the intake returned to normal ([2]; dry FIP group)	Death [2, 4]	Moderate response [2, 5]	Clinical manifestations: treatment time after which ascites and dyspnea basically recovered ([2]; wet FIP group)	Clinical manifestations: treatment time after which the normal cat food was given ([2]; wet FIP group)	Death [2, 6]	Moderate response [2, 7]	Clinical manifestations: treatment time after which the food intake recovered ([2]; dry FIP group)	Clinical manifestations: treatment time after which the food intake recovered ([2]; wet FIP group)	cats with the FIP in remission [3]
COc1ccc(C2=NN(C(N)=S)C(c3cc(O)c(O)c(Br)c3Br)C2)cc1 (stereo not drawn) [Compound 5]	strongest ability to inhibit FIPV virus replication	≤ 48 h	1 days	7 days	faster onset of action, fewer deaths and higher response rate	48 hours, and the	given after 1 day of days	normal after 3 days	0	5	after 10 days of	After 1 day of treat-	1	6	–	–	–
N#C[C@@]1(c2ccc3c(N)ncnn23)O[C@H](CO)[C@@H](O)[C@H]1O [GS-441524, reference compound]	–	–	–	–	–	–	–	–	0	3	–	–	1	3	After 3 days of treat-	After 3 days of treat-	about 60%
